Experimental data as given in patent US10065970B2 (Genentech, Inc., priority 2015, dated 2018).
Where two headings read alike, the source gives them in different places.

Molecular target: PI3Kα (alpha) (Homo sapiens (Human), UniProt P42336)
Test: p110α (alpha) PI3K Binding Assay (ADP-Glo lipid kinase reaction)
Type: biochemical
Conditions: read-out: PI3Kα-(alpha) ATP (Ki) micromolar
How it was run: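 Enzyme with PIP2:3PS lipid substrate and ATP/MgCl2 in 50 mM HEPES, 50 mM NaCl, 3 mM MgCl2, 0.01% BSA, 1% DMSO, 120 min at room temperature. ADP formed detected by ADP-Glo luminescence. Ki from 10-point dose-response curves via the Morrison equation.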

[1] = PI3K alpha 0.2 nM, ATP 40 μM, PIP2:3PS 50 μM, 120 min, room temperature, Ki by Morrison Equation

PI3Kα (alpha), sequence (P42336 whole entry): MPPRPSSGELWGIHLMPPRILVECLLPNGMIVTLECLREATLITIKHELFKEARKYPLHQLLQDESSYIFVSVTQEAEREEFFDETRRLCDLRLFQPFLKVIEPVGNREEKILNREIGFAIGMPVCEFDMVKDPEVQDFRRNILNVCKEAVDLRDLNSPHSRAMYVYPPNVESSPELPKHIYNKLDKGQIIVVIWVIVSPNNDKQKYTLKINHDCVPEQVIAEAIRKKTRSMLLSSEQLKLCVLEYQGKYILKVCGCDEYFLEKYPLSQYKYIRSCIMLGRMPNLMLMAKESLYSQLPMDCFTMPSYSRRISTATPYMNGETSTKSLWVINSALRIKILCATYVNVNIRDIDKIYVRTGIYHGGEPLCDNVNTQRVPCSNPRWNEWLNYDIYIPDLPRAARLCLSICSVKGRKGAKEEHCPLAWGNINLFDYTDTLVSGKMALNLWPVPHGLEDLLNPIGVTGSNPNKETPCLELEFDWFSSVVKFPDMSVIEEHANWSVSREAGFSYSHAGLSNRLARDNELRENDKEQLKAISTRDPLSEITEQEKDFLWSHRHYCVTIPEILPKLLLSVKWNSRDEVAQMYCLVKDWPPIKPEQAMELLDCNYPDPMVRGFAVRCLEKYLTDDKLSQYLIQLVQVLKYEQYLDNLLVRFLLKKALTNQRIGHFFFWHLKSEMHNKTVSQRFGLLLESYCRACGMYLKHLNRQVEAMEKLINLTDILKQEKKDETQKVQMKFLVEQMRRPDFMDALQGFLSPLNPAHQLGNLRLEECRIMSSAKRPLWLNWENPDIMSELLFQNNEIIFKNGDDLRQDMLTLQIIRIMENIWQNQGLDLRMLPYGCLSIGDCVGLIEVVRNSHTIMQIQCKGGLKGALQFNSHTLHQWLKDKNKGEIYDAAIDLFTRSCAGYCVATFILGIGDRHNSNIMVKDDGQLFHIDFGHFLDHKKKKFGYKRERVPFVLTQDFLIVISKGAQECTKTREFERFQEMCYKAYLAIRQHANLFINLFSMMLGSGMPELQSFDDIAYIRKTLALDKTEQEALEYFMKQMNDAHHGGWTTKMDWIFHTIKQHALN
PI3Kα (alpha), sequence (P27986 whole entry partner): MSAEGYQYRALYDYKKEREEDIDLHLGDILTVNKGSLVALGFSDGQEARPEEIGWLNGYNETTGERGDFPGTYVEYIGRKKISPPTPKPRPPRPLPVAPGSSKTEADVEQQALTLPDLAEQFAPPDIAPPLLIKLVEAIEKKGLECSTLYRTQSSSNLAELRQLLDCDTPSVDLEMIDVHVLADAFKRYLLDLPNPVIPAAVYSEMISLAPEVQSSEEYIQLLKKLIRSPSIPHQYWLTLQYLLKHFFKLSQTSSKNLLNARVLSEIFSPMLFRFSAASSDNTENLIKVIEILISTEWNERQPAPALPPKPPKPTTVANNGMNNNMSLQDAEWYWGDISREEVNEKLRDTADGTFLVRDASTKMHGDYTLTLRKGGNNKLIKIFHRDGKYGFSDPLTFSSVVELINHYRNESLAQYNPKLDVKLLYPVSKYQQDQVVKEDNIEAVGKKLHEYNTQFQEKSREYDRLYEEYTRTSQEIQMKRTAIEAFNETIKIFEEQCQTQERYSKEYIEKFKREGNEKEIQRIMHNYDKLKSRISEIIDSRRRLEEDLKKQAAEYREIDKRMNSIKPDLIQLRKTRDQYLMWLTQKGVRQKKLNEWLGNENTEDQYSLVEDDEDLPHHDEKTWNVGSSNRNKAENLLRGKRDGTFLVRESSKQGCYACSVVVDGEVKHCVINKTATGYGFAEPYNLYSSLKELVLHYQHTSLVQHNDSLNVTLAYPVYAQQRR

| Compound | Ki [1] [nM] | Ki [nM] |
| --- | --- | --- |
| C[C@H]1CCN(c2cc3c4c(c2)nc(-c2ccc5oc(N)nc5c2)n4CCCO3)[C@@H]1C(N)=O [Example 308, (2S,3S)-1-(1-(2-Aminobenzo[d]oxazol-5-yl)-8,9-dihydro-7H-6-oxa-2,9a-diazabenzo[cd]azulen-4-yl)-3-methylpyrrolidine-2-carboxamide] |  | 0.627 |
| C[C@H]1CCN(c2cc3c4c(c2)nc(-c2ccc5oc(N)nc5c2)n4CCCCO3)[C@@H]1C(N)=O [Example 309, (2S,3S)-1-(1-(2-Aminobenzo[d]oxazol-5-yl)-7,8,9,10-tetrahydro-6-oxa-2,10a-diazacycloocta[cd]inden-4-yl)-3-methylpyrrolidine-2-carboxamide] | 0.04 |  |
| CO[C@@H]1CCN(c2cc3c4c(c2)nc(-c2ccc5oc(N)nc5c2)n4CCCCO3)[C@@H]1C(N)=O [Example 310, (2S,3R)-1-(1-(2-Aminobenzo[d]oxazol-5-yl)-7,8,9,10-tetrahydro-6-oxa-2,10a-diazacycloocta[cd]inden-4-yl)-3-methoxypyrrolidine-2-carboxamide] | 0.171 |  |

Other lines, results leading:

| Ki [1] [nM] | Ki [nM] | Compound |
| --- | --- | --- |
| < 0.02 |  | C[C@H](Oc1cc2c3c(c1)nc(-c1cnc(-c4ncn[nH]4)c(F)c1)n3CCCCO2)C(N)=O [Example 307, (S)-2-((1-(5-Fluoro-6-(1H-1,2,4-triazol-5-yl)pyridin-3-yl)-7,8,9,10-tetrahydro-6-oxa-2,10a-diazacycloocta[cd]inden-4-yl)oxy)propanamide] |
| 2.09 |  | CC[C@H](Oc1cc2c3c(c1)nc(-c1ccc4oc(N)nc4c1)n3CCCCO2)C(=O)O [Example 313, (S)-2-((1-(2-Aminobenzo[d]oxazol-5-yl)-7,8,9,10-tetrahydro-6-oxa-2,10a-diazacycloocta[cd]inden-4-yl)oxy)butanoic acid] |
